The results in this text go back to US20250042889A1, “3CLPRO PROTEASE INHIBITOR” (SHANGHAI QILU PHARMACEUTICAL RESEARCH AND DEVELOPMENT …, priority 2021, published 2025).

The term AUC denotes concentration integrated over time. Lower therefore signals less exposure. As a reminder, the Vd is the apparent volume that relates the amount in the body to the concentration in plasma or blood. Higher therefore signals extensive tissue distribution. As a reminder, the clearance is the rate of elimination divided by the concentration. The term Cmax denotes the maximum level reached in the sampled fluid or tissue. As a reminder, the half-life is how long it takes for the measured level to halve. In general, Tmax refers to the time from dosing to the highest level.

For series [1] the following is noted: male, CD1, mouse, in vivo, po, 10 mg/kg.
Series [2] deals with SARS-COV-2 3CLpro/Mpro protease (Severe acute respiratory syndrome coronavirus 2 (2019-nCoV) (SARS-CoV-2), UniProt P0DTD1). The series is described as follows: Inhibitory effect on SARS-COV-2 3CLpro/Mpro protease by fluorescence resonance energy transfer. In kind it is biochemical. Conditions: activity intervals A-D.
The nature of series [3]: in vivo. Conditions: male, CD1, mouse.
The nature of series [4]: Pharmacokinetics in vivo experiment in cynomolgus macaques. The note with it: male, cynomolgus monkey, 10 mg/kg; for AUC / Cmax / Tmax: in vivo, po; for half-life: plasma, cynomolgus macaque, oral administration. The method, then: • Basic information of animals • Species: cynomolgus macaque • Grade: conventional grade • Quantity: 18 cynomolgus macaques (male) were used in the drug administration experiment. • Weight: about 2.5 to 4.5 kg • Age: 3 to 5 years old • Source: Huazhen Animal Farm, Conghua City (General Partnership)
There are 9 male cynomolgus macaques, 3 cynomolgus macaques/group, 3 groups in total. The animals were fasted for 12 hours before administration, and the test solution was administered by gavage (10 mg/kg), and the administration volume was 2.5 mL/kg.
The blood was placed on wet ice, and centrifuged at 1700 g at 4° C. for 10 min within 1.5 h after collection. After centrifugation, the plasma was taken and added into a detection tube. Plasma samples can be stored in a refrigerator below-20° C. within 2 hours after centrifugation.
WinNonlin 8.1.0.3530 was used to calculate pharmacokinetic parameters.

Series [5] can be described thus: Pharmacokinetics in vivo experiment in CD1 mice. Conditions: oral administration, 10 mg/kg.
The mark [6] stands for this setting: read-out: IC50 (nM), Inhibition on SARS-CoV-2 3CLpro/Mpro protease.

Like-named read-outs stand apart in the source and are kept apart here.

`O=C(c1cc(Br)cc([N+](=O)[O-])c1N[C@@H]1CCCN(C(=O)[C@H]2CNCC(F)(F)C2)C1)N1CCCCC1` [Example 320]: the F in series [1] amounted to 27.7%. The IC50 in series [2] (setting [6]) lay in the range of 10 to 50 nM. Further, in series [3] (in vivo, iv, 1 mg/kg), the AUC came out at 0.156 µg·h/mL, the Vd turned out to be 2.1 L/kg and the clearance was determined as 0.378 L/h/kg. Also, in series [3] (in vivo, po, 10 mg/kg), the AUC is 0.28 µg·h/mL and the Cmax was determined as 0.825 µg/mL. Besides, in series [3] (plasma, iv, 1 mg/kg), the half-life was 21.6 min. The compound further had a half-life in series [3] (plasma, po, 10 mg/kg) of 26.2 min.
For the compound `CNc1cncc(C(=O)N2CCC[C@@H](Nc3c(C(=O)N4CCOC(F)(F)C4)cc(Br)cc3[N+](=O)[O-])C2)c1` [Example 295], the F in series [1] was determined as 36.3%. In series [2] (setting [6]), the IC50 fell in the range of 10 to 50 nM. In series [3] (in vivo, iv, 1 mg/kg), this compound had an AUC of 0.136 µg·h/mL, a Vd of 1.06 L/kg and a clearance of 0.444 L/h/kg. In series [3] (in vivo, po, 10 mg/kg), this compound registered an exposure (AUC) of 0.494 µg·h/mL and a Cmax of 0.697 µg/mL. This compound also had a half-life in series [3] (plasma, iv, 1 mg/kg) of 7.62 min. Moreover, the half-life in series [3] (plasma, po, 10 mg/kg) was 11.6 min.
Turning to `CNc1cncc(C(=O)N2C[C@H](Nc3c(C(=O)N4C[C@@H](C)O[C@@H](C)C4)cc(Br)cc3[N+](=O)[O-])[C@@H](OC)C2)c1` [Example 321], the F in series [1] came out at 84.7%. For the same compound, in series [4], the AUC worked out at 0.994 µg·h/mL, the highest concentration (Cmax) turned out to be 0.699 µg/mL and the Tmax is 70.2 min. For the same compound, the IC50 in series [2] (setting [6]) was in the range of 10 to 50 nM. In series [3] (in vivo, iv, 1 mg/kg), this compound showed an AUC of 0.153 µg·h/mL, a Vd of 7.1 L/kg and a clearance of 0.372 L/h/kg. Further, in series [3] (in vivo, po, 10 mg/kg), the AUC came to 1.35 µg·h/mL and the concentration peaked (Cmax) at 1.64 µg/mL. Moreover, the half-life in series [3] (plasma, iv, 1 mg/kg) was 96 min. This compound also showed a half-life in series [3] (plasma, po, 10 mg/kg) of 144 min.
`CNc1cncc(C(=O)N2CCC[C@@H](Nc3c(C(=O)N4CCCC(F)(F)C4)cc(Br)cc3[N+](=O)[O-])C2)c1` [Example 36, (R)-(5-bromo-2-((1-(5-(methylamino)nicotinoyl)piperidin-3-yl)amino)-3-nitrophenyl)(3,3-difluoropiperidin-1-yl)methanone] returned a F in series [1] of 29.7%. Besides, the IC50 in series [2] (setting [6]) was 10 to 50 nM. In series [3] (in vivo, iv, 1 mg/kg), the AUC worked out at 0.092 µg·h/mL, the Vd came to 1.7 L/kg and the clearance worked out at 0.672 L/h/kg. In series [3] (in vivo, po, 10 mg/kg), the AUC was 0.273 µg·h/mL and the Cmax worked out at 0.365 µg/mL. In series [3] (plasma, iv, 1 mg/kg), this compound showed a half-life of 8.16 min.
With `CNc1cncc(C(=O)N2CCC[C@@H](Nc3c(C(=O)N4CCO[C@H](C)C4)cc(Br)cc3[N+](=O)[O-])C2)c1` [Example 35], the F in series [1] is on record as 60%. In addition, in series [2] (setting [6]), the IC50 is 10 to 50 nM. In series [3] (in vivo, iv, 1 mg/kg), the AUC is 0.112 µg·h/mL, the Vd was 1.28 L/kg and the clearance came out at 0.547 L/h/kg. In series [3] (in vivo, po, 10 mg/kg), this compound gave an AUC of 0.668 µg·h/mL and a Cmax of 1.02 µg/mL. The compound also gave a half-life in series [3] (plasma, iv, 1 mg/kg) of 8.1 min.
Regarding `CNc1cncc(C(=O)N2C[C@H](Nc3c(C(=O)N4C[C@@H](C)O[C@@H](C)C4)cc(Br)cc3[N+](=O)[O-])C[C@@H](OC)C2)c1` [Example 422], in series [1], the F is listed as 62.6%. Moreover, the IC50 in series [2] (setting [6]) lay in the range of 50 to 100 nM. In series [3] (in vivo, iv, 1 mg/kg), this compound registered an AUC of 0.102 µg·h/mL, a Vd of 1.32 L/kg and a clearance of 0.589 L/h/kg. In series [3] (in vivo, po, 10 mg/kg), this compound displayed an AUC of 0.628 µg·h/mL and a Cmax of 0.725 µg/mL. In series [3] (plasma, iv, 1 mg/kg), the half-life was 6.36 min. The same compound had a half-life in series [3] (plasma, po, 10 mg/kg) of 19.2 min.
`CNc1cncc(C(=O)N2CCC[C@@H](Nc3c(C(=O)N4CCCCC4)cc(Br)cc3[N+](=O)[O-])C2)c1` [Example 31, (R)-(5-bromo-2-((1-(5-(methylamino)nicotinoyl)piperidin-3-yl)amino)-3-nitrophenyl)(piperidin-1-yl)methanone] registered a F in series [1] of 42.1%. Further, in series [4], the AUC is 0.454 µg·h/mL, the concentration peaked (Cmax) at 0.232 µg/mL, the Tmax came out at 79.8 min and the half-life was 29.4 min. Further, the IC50 in series [2] (setting [6]) was in the range of 10 to 50 nM. In series [3] (in vivo, iv, 1 mg/kg), this compound registered an AUC of 0.088 µg·h/mL, a Vd of 1.56 L/kg and a clearance of 0.696 L/h/kg. In series [3] (in vivo, po, 10 mg/kg), this compound had an AUC of 0.369 µg·h/mL and a Cmax of 0.401 µg/mL. In series [3] (plasma, po, 10 mg/kg), this compound had a half-life of 15 min.
`CNc1cncc(C(=O)N2CCC[C@@H](Nc3c(C(=O)N4C5CCCC4COC5)cc(Br)cc3[N+](=O)[O-])C2)c1` [Example 312] showed an IC50 in series [2] (IC50 (nM), Inhibition on SARS-CoV-2 3CLpro/Mpro protease) of 10 to 50 nM. In series [3] (in vivo, iv, 1 mg/kg), this compound had an AUC of 0.095 µg·h/mL, a distribution volume (Vd) of 1.38 L/kg, a clearance of 0.636 L/h/kg and a half-life of 7.68 min. In series [3] (in vivo, po, 10 mg/kg), this compound gave an AUC of 0.605 µg·h/mL, a Cmax of 0.594 µg/mL and a half-life of 46.1 min. The same compound came in with a F in series [5] of 65.5%.
Compound `CNc1cncc(C(=O)N2CCC[C@@H](Nc3c(C(=O)N4C[C@@H](C)O[C@@H](C)C4)cc(Br)cc3[N+](=O)[O-])C2)c1` [Example 34, (5-Bromo-2-((R)-1-(5-(methylamino)nicotinoyl)piperidin-3-yl)amino)-3-nitrophenyl ((2R,6S)-2,6-dimethylmorpholinyl)methanone] registered a F in series [1] of 63%. In addition, in series [4], the AUC came out at 4.09 µg·h/mL, the Cmax came to 1.96 µg/mL, the Tmax was determined as 79.8 min and the half-life is 35 min. For the same compound, the IC50 in series [2] (setting [6]) was in the range of 10 to 50 nM. In series [3] (in vivo, iv, 1 mg/kg), this compound gave an area under the curve (AUC) of 0.107 µg·h/mL, a Vd of 1.02 L/kg and a clearance of 0.564 L/h/kg. Also, in series [3] (in vivo, po, 10 mg/kg), the AUC worked out at 0.702 µg·h/mL and the maximum concentration (Cmax) worked out at 1.02 µg/mL. Also, the half-life in series [3] (plasma, iv, 1 mg/kg) is 6.84 min. This compound also showed a half-life in series [3] (plasma, po, 10 mg/kg) of 30 min.
On to `O=C(c1cncc(I)c1)N1CCC[C@@H](Nc2c(C(=O)N3CCC(F)(F)CC3)cc(Br)cc2[N+](=O)[O-])C1` [Example 75], for which the IC50 in series [2] (setting [6]) was below 10 nM.
With `C[C@H]1CN(C(=O)c2cc(Br)cc([N+](=O)[O-])c2N[C@H]2CN(C(=O)c3cncc(Br)c3)CC2(C)C)C[C@H](C)O1` [Example 225], the IC50 in series [2] (setting [6]) is below 10 nM.
Turning to `O=C(c1cc(Br)cc([N+](=O)[O-])c1N[C@@H]1CCCN(C(=O)c2cncc3cc(Cl)ccc23)C1)N1CCCCC1` [Example 8, (R)-(5-bromo-2-((1-(7-chloroisoquinolin-4-carbonyl)piperidin-3-yl)amino)-3-nitrophenyl)(piperidin-1-yl)methanone], the IC50 in series [2] (setting [6]) was below 10 nM.
The same measure, in the same setting: then `Cc1cc(C(=O)N2C[C@H](Nc3c(C(=O)N4CCN(CC(F)(F)F)C(=O)C4)cc(Br)cc3[N+](=O)[O-])C3(CC3)C2)cc(=O)[nH]1` [Example 91], with 10 to 50 nM.
